Measurements taken from ChEMBL document CHEMBL5331089, “Mucormycosis: A hidden mystery of fungal infection, possible diagnosis, treatment and development of new therapeutic agents” (Eur J Med Chem, 2023).
Converted amounts (≈) assume the structure as drawn. Blank lines part the entries; values can stand above or below the compound they belong to.

Assays:
[1] = tested on: Rhizopus arrhizus; assay: Antifungal activity against Rhizopus oryzae CBS 109939 assessed as fungal growth inhibition by checkerboard broth microdilution assay; assay type: functional
[2] = tested on: Syncephalastrum racemosum; assay: Antifungal activity against Syncephalastrum racemosum SZMC 2011 assessed as fungal growth inhibition measured after 48 hrs by microtitre plate reader assay; assay type: functional
[3] = tested on: Lichtheimia corymbifera; assay: Antifungal activity against Absidia corymbifera SZMC 2010 assessed as fungal growth inhibition measured after 48 hrs by microtitre plate reader assay; assay type: functional
[4] = tested on: Rhizomucor pusillus; assay: Antifungal activity against Rhizomucor pusillus ETH M4920 assessed as fungal growth inhibition; assay type: functional
[5] = tested on: Rhizopus arrhizus; assay: Antifungal activity against Rhizopus oryzae clinical isolate assessed as fungal growth inhibition by checkerboard broth microdilution assay; assay type: functional
[6] = tested on: Rhizomucor miehei; assay: Antifungal activity against Rhizomucor miehei CBS 360.92 assessed as fungal growth inhibition measured after 48 hrs by microtitre plate reader assay; assay type: functional
[7] = tested on: Rhizomucor pusillus; assay: Antifungal activity against Rhizomucor pusillus clinical isolate assessed as fungal growth inhibition measured after 48 hrs by microtitre plate reader analysis; assay type: functional
[8] = tested on: Mucor mucedo; assay: Antifungal activity against Mucor mucedo WRL CN(M) assessed as fungal growth inhibition; assay type: functional
[9] = tested on: Mucor circinelloides; assay: Antifungal activity against Mucor circinelloides MS 12 assessed as fungal growth inhibition; assay type: functional
[10] = tested on: Rhizopus arrhizus; assay: Antifungal activity against Rhizopus oryzae CBS 112.07 assessed as fungal growth inhibition measured after 48 hrs by microtitre plate reader assay; assay type: functional
[11] = tested on: Rhizopus arrhizus; assay: Antifungal activity against Rhizopus oryzae CBS 146.90 assessed as fungal growth inhibition; assay type: functional
[12] = tested on: Rhizomucor pusillus; assay: Antifungal activity against Rhizomucor pusillus CN(M)231 assessed as fungal growth inhibition measured after 48 hrs by microtitre plate reader assay; assay type: functional
[13] = Antifungal activity against Rhizopus microsporus NRRL 514 assessed as fungal growth inhibition measured after 48 hrs by microtitre plate reader assay; assay type: functional
[14] = tested on: Absidia glauca; assay: Antifungal activity against Absidia glauca SZMC 11072 assessed as fungal growth inhibition; assay type: functional
[15] = tested on: Mucor racemosus; assay: Antifungal activity against Mucor racemosus WRL CN(M)304 assessed as fungal growth inhibition; assay type: functional
[16] = tested on: Rhizomucor miehei; assay: Antifungal activity against Rhizomucor miehei CBS 360.92 assessed as fungal growth inhibition; assay type: functional
[17] = tested on: Rhizopus arrhizus; assay: Antifungal activity against Rhizopus oryzae clinical isolate assessed as fungal growth inhibition measured after 24 to 72 hrs by microtitre plate reader analysis; assay type: functional; details: time 24-72 hrs
[18] = tested on: Syncephalastrum racemosum; assay: Antifungal activity against Syncephalastrum racemosum assessed as fungal growth inhibition measured for 24 to 24 hrs by agar well diffusion assay; assay type: functional, organism-based; details: for MIC: time 24-24 hrs
[19] = tested on: Syncephalastrum racemosum; assay: Antifungal activity against Syncephalastrum racemosum RCMB 016001 assessed as zone of inhibition measured after 24 hrs; assay type: functional
[20] = tested on: Rhizomucor pusillus; assay: Antifungal activity against Rhizomucor pusillus assessed as fungal growth inhibition measured at 36 to 48 hrs; assay type: functional; details: time 36-48 hrs
[21] = tested on: Mucor circinelloides; assay: Antifungal activity against Mucor circinelloides assessed as fungal growth inhibition measured at 36 to 48 hrs; assay type: functional; details: time 36-48 hrs
[22] = tested on: Rhizopus delemar; assay: Antifungal activity against Rhizopus delemar assessed as fungal growth inhibition; assay type: functional; details: read-out: MEC
[23] = tested on: Mucor indicus; assay: Antifungal activity against Mucor indicus assessed as fungal growth inhibition; assay type: functional; details: read-out: MEC
[24] = tested on: Mucor circinelloides; assay: Antifungal activity against Mucor circinelloides assessed as fungal growth inhibition; assay type: functional; details: read-out: MEC
[25] = tested on: Lichtheimia corymbifera; assay: Antifungal activity against Absidia corymbifera assessed as fungal growth inhibition; assay type: functional; details: read-out: MEC
[26] = tested on: Rhizopus arrhizus; assay: Antifungal activity against Rhizopus oryzae assessed as fungal growth inhibition; assay type: functional; details: read-out: MEC

SMILES: CC(C)n1c(/C=C/[C@H](O)C[C@H](O)CC(=O)O)c(-c2ccc(F)cc2)c2ccccc21
MIC [1]: 2 µg/mL | MIC [2]: 11 µg/mL (≈ 26.7 µM) | MIC90 [3]: 3.6 µg/mL (≈ 8.75 µM) | MIC [4]: 6.25 µg/mL (≈ 15.2 µM) | MIC [5]: 2 µg/mL | MIC90 [6]: 3.6 µg/mL (≈ 8.75 µM) | MIC [7]: 0.4 µg/mL (≈ 0.972 µM) | MIC [8]: 6.25 µg/mL (≈ 15.2 µM) | MIC [9]: 4 µg/mL (≈ 9.72 µM) | MIC [10]: 3.6 µg/mL (≈ 8.75 µM) | MIC [11]: 12.5 µg/mL (≈ 30.4 µM) | MIC [12]: 0.4 µg/mL (≈ 0.972 µM) | MIC90 [13]: 33 µg/mL (≈ 80.2 µM) | MIC [14]: 6.25 µg/mL (≈ 15.2 µM) | MIC [15]: 25 µg/mL (≈ 60.8 µM) | MIC [16]: 3.12 µg/mL (≈ 7.59 µM) | MIC [17]: 2 µg/mL (≈ 4.86 µM)

MIC [18]: 0.98 µg/mL (≈ 1.61 µM)
SMILES: CCOC(=O)N1C/C(=C\c2ccc(OC)cc2)C(=O)[C@@]2(C1)[C@H](c1ccc(OC)cc1)[C@H]1CCCN1[C@]21C(=O)Nc2ccccc21
IC50 [18]: 11.3 µg/mL (≈ 18.6 µM)

MIC [18]: 1.95 µg/mL (≈ 3.3 µM)
SMILES: CCOC(=O)N1C/C(=C\c2ccc(Cl)cc2)C(=O)[C@@]2(C1)[C@H](c1ccc(Cl)cc1)CN(C)[C@]21C(=O)Nc2ccccc21
IC50 [18]: 16.4 µg/mL (≈ 27.7 µM) | inhibition zone (IZ) [19]: 39.46 mm

MIC [18]: 0.49 µg/mL (≈ 0.768 µM)
SMILES: CCOC(=O)N1C/C(=C\c2ccc([N+](=O)[O-])cc2)C(=O)[C@@]2(C1)[C@H](c1ccc([N+](=O)[O-])cc1)[C@H]1CCCN1[C@]21C(=O)Nc2ccccc21
IC50 [18]: 10.6 µg/mL (≈ 16.7 µM) | inhibition zone (IZ) [19]: 39.46 mm

MIC [18]: 1.95 µg/mL (≈ 3.15 µM)
SMILES: CCOC(=O)N1C/C(=C\c2ccc(F)c(F)c2)C(=O)[C@@]2(C1)[C@H](c1ccc(F)c(F)c1)[C@H]1CCCN1[C@]21C(=O)Nc2ccccc21
IC50 [18]: 11.3 µg/mL (≈ 18.3 µM)

SMILES: CCOC(=O)N1C/C(=C\c2cc(OC)c(OC)c(OC)c2)C(=O)[C@@]2(C1)[C@H](c1cc(OC)c(OC)c(OC)c1)[C@H]1CCCN1[C@]21C(=O)Nc2ccccc21
inhibition zone (IZ) [19]: 39.46 mm

SMILES: Cc1ccc([C@H]2[C@@]3(SC(=O)NC3=O)C3CCCN3[C@@]23C(=O)Nc2ccccc23)cc1 (stereo partly specified)
inhibition zone (IZ) [19]: 19 mm

SMILES: CCOC(=O)N1C/C(=C\c2cc(OC)c(OC)c(OC)c2)C(=O)[C@@]2(C1)[C@H](c1cc(OC)c(OC)c(OC)c1)CN(C)[C@]21C(=O)Nc2ccccc21
inhibition zone (IZ) [19]: 39.46 mm

SMILES: O=C1NC(=O)[C@]2(S1)C1CCCN1[C@@]1(C(=O)Nc3ccccc31)[C@H]2c1ccccc1 (stereo partly specified)
inhibition zone (IZ) [19]: 14 mm

MIC [20]: 2 µg/mL (≈ 2.91 µM) | MIC [21]: 2 µg/mL (≈ 2.91 µM)
SMILES: Cc1cc(N2CCN(c3ccc(C(=O)N[C@H]4CCCC[C@@H]4O)cc3)CC2)ccc1OC[C@@H]1CO[C@@](Cn2cncn2)(c2ccc(F)cc2F)C1

SMILES: C[C@@H]1C[C@H]1/C=C/[C@@H]1C[C@H]1[C@@H]1C[C@H]1[C@@H]1C[C@H]1[C@@H]1C[C@H]1/C=C/C=C/C(=O)NC[C@H]1O[C@@H](N2CCC(=O)NC2=O)[C@H](O)[C@@H]1O
minimal effective concentration [22]: 0.016 µg/mL | minimal effective concentration [23]: ≤ 0.008 µg/mL | minimal effective concentration [24]: 0.016 µg/mL | minimal effective concentration [25]: ≤ 0.008 µg/mL | minimal effective concentration [26]: ≤ 0.008 µg/mL

SMILES: CCOC(=O)N1C/C(=C\c2ccc([N+](=O)[O-])cc2)C(=O)[C@@]2(C1)[C@H](c1ccc([N+](=O)[O-])cc1)CN(C)[C@]21C(=O)Nc2ccccc21
inhibition zone (IZ) [19]: 39.46 mm

SMILES: CCOC(=O)N1C/C(=C\c2ccc(F)cc2)C(=O)[C@@]2(C1)[C@H](c1ccc(F)cc1)CN(C)[C@]21C(=O)Nc2ccccc21
inhibition zone (IZ) [19]: 39.46 mm

SMILES: CCOC(=O)N1C/C(=C\c2ccc(F)c(F)c2)C(=O)[C@@]2(C1)[C@H](c1ccc(F)c(F)c1)CN(C)[C@]21C(=O)Nc2ccccc21
inhibition zone (IZ) [19]: 39.46 mm
